Reference: patent US5045566A, “Novel imidate insecticides” (ICI Americas Inc., priority 1989, dated 1991)

Legend:
Type in all cases: in vivo
[1] = test system: Maize weevil [Sitophilus zeamais (Motschulsky)]; test: Maize weevil on dipped corn seeds (MW), 48 hours; details: percent in solution, adult weevils
Procedure, shortened: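 LC50, given as percent of compound in dipping solution, comes from dosage-mortality curves over concentrations descending from 0.01%. Four corn seeds soaked 2-3 s in 50:50 acetone:water solution were dried and held with 10 adult weevils, about 25° C, mortality read after 48 h.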

[2] = test system: Cabbage Looper [Trichoplusia ni (Hubner)]; test: Cabbage looper leaf dip (CL), 3-5 days; details: percent in solution, second-instar larvae
Procedure, shortened: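 Steps: dilute compound in 50-50 acetone-water from 0.1% downward; immerse cotyledon pieces 2-3 s and dry; place in humid petri dishes with five second-instar larvae; record mortality at 3-5 days. Dosage-mortality curves yield LC50 as percent in solution.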

[3] = test system: Black Bean Aphid [Aphis fabae (Scop.)]; test: Black bean aphid spray test on nasturtium (BBA), 48 hours; details: percent of test compound in sprayed solution
Procedure, shortened: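 LC50, given as percent test compound in the sprayed liquid, was calculated from dosage-mortality curves using concentrations from 0.05% downward. Sprays in 50:50 acetone-water went to runoff on ~5 cm nasturtiums carrying 25-50 aphids of mixed ages, one day after infestation. Deaths were counted 48 h later under greenhouse conditions.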

[4] = test system: Aster Leafhopper [Macrosteles fascifrens (Stal)]; test: Aster leafhopper on dipped oat seedlings (LH), 48 hours; details: percent in solution, adults/nymphs
Experimental: The compounds in Tables 1 and 2 above were tested for insecticidal activity using the following testing procedures. LC50 values, based on the results of these tests and calculated according to dosage-mortality curves, are expressed in Table 3.
Aster Leafhopper [Macrosteles fascifrens (Stal)]
Oat seedlings (Avena sp) were grown in a commercial potting soil in cups. When the plants were approximately 10 cm tall they were thinned to three plants per cup and dipped for 2-3 seconds in 50-50 acetone-water solutions of the test compounds. When the plants had dried, a clear plastic tube was placed over them and the bottom end pressed into the cup. Ten aster leafhopper adults/nymphs were then placed in each tube and the tops of the tubes covered with white organdy cloth. Mortality counts were made after 48 hours. Test concentrations ranged from 0.05% down to that at which 50% mortality occurred. The LC50 values are expressed below in Table 3 under the heading "LH" in terms of the percent of the test compound in the solution.

[5] = test system: Housefly [Musca domestica]; test: Housefly contact mortality in dishes (HF), 48 hours; details: μg of test compound per 25 female flies
Procedure, shortened: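 Dry-film exposure of 25 female houseflies per cage, 48 h; LC50 as μg per 25 flies.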

[6] = test system: Tobacco Budworm [Heliothis virescens (Fabricius)] eggs; test: Tobacco budworm eggs (TBW-E); details: percent in solution; 2-day old eggs
Procedure, shortened: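 Mortality of dipped eggs served as read-out, recorded after untreated controls hatched and began feeding. Treatments used acetone solutions from 0.1% downward, with eggs incubated at 78° F; LC50 is expressed as percent of compound in the solution.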

SMILES: CC1(C(=Nc2ccc(Cl)cc2)OCc2cccc(Oc3ccccc3)c2)CC1 [Compound 5]
- LC50 MW [1]: > 0.01%
- LC50 CL [2]: 0.005%
- LC50 BBA [3]: 0.001%
- LC50 LH [4]: > 0.05%
- LC50 HF [5]: 21 µg

SMILES: C=C(C)C(=Nc1ccc(Cl)cc1)OCc1cccc(Oc2ccccc2)c1 [Compound 6]
- LC50 MW [1]: > 0.01%
- LC50 CL [2]: 0.02%
- LC50 BBA [3]: 0.001%
- LC50 LH [4]: > 0.05%
- LC50 HF [5]: 17 µg
- LC50 TBW E (eggs) [6]: 0.015%

SMILES: CCC(=Nc1ccc(Cl)cc1)OCc1cccc(Oc2ccccc2)c1 [Compound 11]
- LC50 MW [1]: > 0.01%
- LC50 CL [2]: 0.025%
- LC50 BBA [3]: 0.01%
- LC50 LH [4]: > 0.05%
- LC50 HF [5]: 6 µg
- LC50 TBW E (eggs) [6]: > 0.1%

SMILES: CC(C)C(=Nc1cc(Cl)ccc1Cl)OCc1cccc(Oc2ccccc2)c1 [Compound 13]
- LC50 MW [1]: > 0.01%
- LC50 CL [2]: 0.014%
- LC50 BBA [3]: 0.003%
- LC50 LH [4]: > 0.05%
- LC50 HF [5]: > 100 µg
- LC50 TBW E (eggs) [6]: > 0.1%

SMILES: CC(C)C(=Nc1ccccc1Cl)OCc1cccc(Oc2ccccc2)c1 [Compound 17]
- LC50 MW [1]: > 0.01%
- LC50 CL [2]: 0.03%
- LC50 BBA [3]: 0.03%
- LC50 LH [4]: > 0.05%
- LC50 HF [5]: 75 µg
- LC50 TBW E (eggs) [6]: > 0.1%

SMILES: N#CC(=Nc1ccc(Cl)cc1)OCc1cccc(Oc2ccccc2)c1 [Compound 21]
- LC50 MW [1]: > 0.01%
- LC50 CL [2]: 0.02%
- LC50 BBA [3]: > 0.1%
- LC50 LH [4]: > 0.05%
- LC50 HF [5]: 7 µg
- LC50 TBW E (eggs) [6]: > 0.1%

SMILES: FC(F)(F)C(=Nc1ccc(Cl)cc1)OCc1cccc(Oc2ccccc2)c1 [Compound 35]
- LC50 MW [1]: > 0.01%
- LC50 CL [2]: 0.008%
- LC50 LH [4]: > 0.05%
- LC50 HF [5]: 15 µg
- LC50 TBW E (eggs) [6]: 0.03%

SMILES: Cc1c(Cl)cc(N=C(OCc2cccc(Oc3ccccc3)c2)C(C)C)cc1Cl [Compound 101]
- LC50 CL [2]: 0.0045%
- LC50 BBA [3]: 0.002%
- LC50 LH [4]: 0.0008%
- LC50 HF [5]: 81 µg
- LC50 TBW E (eggs) [6]: > 0.1%

SMILES: CCOC(=O)c1cc(N=C(OCc2cccc(Oc3ccccc3)c2)C(C)C)ccc1Cl [Compound 102]
- LC50 CL [2]: 0.075%
- LC50 BBA [3]: 0.05%
- LC50 LH [4]: > 0.05%
- LC50 HF [5]: > 100 µg
- LC50 TBW E (eggs) [6]: > 0.1%

SMILES: CC(C)(Cl)C(=Nc1ccc(C#N)c(Cl)c1)OCc1cccc(Oc2ccccc2)c1 [Compound 108]
- LC50 CL [2]: 0.002%
- LC50 BBA [3]: 0.01%
- LC50 LH [4]: > 0.01%
- LC50 HF [5]: 44 µg
- LC50 TBW E (eggs) [6]: > 0.1%

SMILES: CC(C)C(=Nc1c(F)cc(F)cc1Br)OCc1cccc(Oc2ccccc2)c1 [Compound 129]
- LC50 CL [2]: 0.005%
- LC50 BBA [3]: 0.03%
- LC50 LH [4]: 0.01%
- LC50 HF [5]: > 100 µg
- LC50 TBW E (eggs) [6]: > 0.1%

SMILES: CC(C)C(=Nc1ccc(Br)cc1)OCc1cccc(Oc2ccccc2)c1 [Compound 131]
- LC50 CL [2]: 0.0045%
- LC50 BBA [3]: 0.003%
- LC50 LH [4]: 0.005%
- LC50 HF [5]: 17 µg
- LC50 TBW E (eggs) [6]: > 0.1%

SMILES: CC(C)(C)C(=Nc1ccc(Br)cc1)OCc1cccc(Oc2ccccc2)c1 [Compound 135]
- LC50 CL [2]: 0.004%
- LC50 BBA [3]: > 0.05%
- LC50 LH [4]: > 0.05%
- LC50 HF [5]: > 100 µg
- LC50 TBW E (eggs) [6]: > 0.1%

SMILES: CC(C)C(=Nc1ccc(I)cc1)OCc1cccc(Oc2ccccc2)c1 [Compound 137]
- LC50 CL [2]: 0.003%
- LC50 BBA [3]: 0.03%
- LC50 LH [4]: 0.008%
- LC50 HF [5]: 18 µg
- LC50 TBW E (eggs) [6]: 0.04%

SMILES: CCc1cccc(N=C(OCc2cccc(Oc3ccccc3)c2)C(C)C)c1 [Compound 154]
- LC50 CL [2]: 0.004%
- LC50 BBA [3]: 0.002%
- LC50 LH [4]: > 0.05%
- LC50 HF [5]: 25 µg
- LC50 TBW E (eggs) [6]: 0.1%

SMILES: CCc1ccc(N=C(OCc2cccc(Oc3ccc(F)cc3)c2)C(C)C)cc1 [Compound 159]
- LC50 CL [2]: 0.001%
- LC50 BBA [3]: 0.001%
- LC50 LH [4]: 0.0025%
- LC50 HF [5]: 25 µg
- LC50 TBW E (eggs) [6]: 0.08%

SMILES: CCc1ccc(N=C(OCc2cccc(Oc3ccccc3)c2)C(C)C)cc1 [Compound 161]
- LC50 CL [2]: 0.0014%
- LC50 BBA [3]: 0.0006%
- LC50 LH [4]: 0.002%
- LC50 HF [5]: 15 µg
- LC50 TBW E (eggs) [6]: 0.07%

SMILES: CCc1cccc(N=C(OCc2cccc(Oc3ccccc3)c2)C(C)(C)C)c1 [Compound 162]
- LC50 CL [2]: 0.035%
- LC50 BBA [3]: > 0.05%
- LC50 LH [4]: > 0.05%
- LC50 HF [5]: > 100 µg
- LC50 TBW E (eggs) [6]: > 0.1%

SMILES: CC(C)C(=Nc1ccc2c(c1)CCC2)OCc1cccc(Oc2ccccc2)c1 [Compound 187]
- LC50 CL [2]: 0.0025%
- LC50 BBA [3]: 0.001%
- LC50 LH [4]: 0.0025%
- LC50 HF [5]: 15 µg
- LC50 TBW E (eggs) [6]: > 0.1%

SMILES: CC(C)C(=Nc1ccc(Cl)cc1)OCc1cccc(Oc2ccc(F)cc2)c1 [Compound 189]
- LC50 MW [1]: > 0.01%
- LC50 CL [2]: 0.00027%
- LC50 LH [4]: 0.002%
- LC50 HF [5]: 17 µg
- LC50 TBW E (eggs) [6]: 0.07%

SMILES: CC(C)C(=Nc1ccc(Cl)c(C(F)(F)F)c1)OCc1cccc(Oc2ccc(F)cc2)c1 [Compound 193]
- LC50 MW [1]: > 0.01%
- LC50 CL [2]: 0.00075%
- LC50 LH [4]: 0.001%
- LC50 HF [5]: 100 µg
- LC50 TBW E (eggs) [6]: > 0.1%

SMILES: Cc1ccc(Oc2cccc(COC(=Nc3ccc(F)c(Cl)c3)C(C)C)c2)cc1 [Compound 225]
- LC50 CL [2]: 0.0025%
- LC50 BBA [3]: 0.006%
- LC50 LH [4]: > 0.05%
- LC50 HF [5]: > 100 µg
- LC50 TBW E (eggs) [6]: > 0.1%

SMILES: CC(C)C(=Nc1ccc(C(C)C)cc1)OCc1cccc(Oc2ccc(F)cc2)c1 [Compound 228]
- LC50 CL [2]: 0.0025%
- LC50 BBA [3]: 0.01%
- LC50 LH [4]: > 0.05%
- LC50 HF [5]: > 100 µg
- LC50 TBW E (eggs) [6]: > 0.1%

SMILES: CC(C)C(=Nc1ccc2c(c1)OC(C)(C)O2)OCc1ccc(F)c(Oc2ccccc2)c1 [Compound 242]
- LC50 CL [2]: 0.00025%
- LC50 BBA [3]: < 0.05%
- LC50 LH [4]: > 0.05%
- LC50 HF [5]: < 100 µg
- LC50 TBW E (eggs) [6]: > 0.1%

SMILES: CSc1ccc(Oc2cccc(COC(=Nc3ccc(F)cc3)C(C)C)c2)cc1 [Compound 257]
- LC50 CL [2]: 0.008%
- LC50 BBA [3]: 0.05%
- LC50 LH [4]: > 0.05%
- LC50 HF [5]: > 100 µg
- LC50 TBW E (eggs) [6]: > 0.1%

SMILES: Fc1ccc(Oc2cccc(COC(=Nc3ccc(F)c(Cl)c3)C(F)(F)C(F)(F)F)c2)cc1 [Compound 258]
- LC50 CL [2]: 0.003%
- LC50 BBA [3]: 0.01%
- LC50 LH [4]: > 0.05%
- LC50 HF [5]: > 100 µg
- LC50 TBW E (eggs) [6]: > 0.1%

SMILES: CC(C)C(=Nc1ccc(Cl)cc1)OC(C)c1cccc(Oc2ccccc2)c1 (stereo not drawn) [Compound 457]
- LC50 CL [2]: 0.009%
- LC50 BBA [3]: > 0.05%
- LC50 LH [4]: > 0.05%
- LC50 HF [5]: > 100 µg
- LC50 TBW E (eggs) [6]: > 0.05%

SMILES: CC(C)C(=Nc1ccc2c(c1)OCO2)OCc1cccc(Oc2ccc(Cl)cc2)n1 [Compound 466]
- LC50 MW [1]: 0.01%
- LC50 CL [2]: 0.0008%
- LC50 LH [4]: > 0.05%
- LC50 HF [5]: 13 µg
- LC50 TBW E (eggs) [6]: > 0.1%

SMILES: COCc1c(F)c(F)c(COC(=Nc2ccc(F)c(Cl)c2F)C(C)C)c(F)c1F [Compound 522]
- LC50 MW [1]: > 0.01%
- LC50 CL [2]: > 0.1%
- LC50 BBA [3]: 0.002%
- LC50 LH [4]: 0.05%
- LC50 TBW E (eggs) [6]: > 0.1%

SMILES: CC(C)C(=Nc1cccc(C(F)(F)F)c1)OCc1cc(Oc2ccc(F)cc2)ccn1 [Compound 528]
- LC50 MW [1]: > 0.01%
- LC50 CL [2]: 0.0075%
- LC50 BBA [3]: > 0.05%
- LC50 LH [4]: > 0.05%
- LC50 TBW E (eggs) [6]: > 0.1%

SMILES: CC(C)C(=Nc1ccc(F)c(Cl)c1)OCc1cc(Oc2ccc(F)cc2)ccn1 [Compound 529]
- LC50 MW [1]: > 0.01%
- LC50 CL [2]: > 0.0025%
- LC50 BBA [3]: > 0.05%
- LC50 LH [4]: > 0.05%
- LC50 TBW E (eggs) [6]: > 0.1%

SMILES: CC(C)C(=Nc1ccc(OC(F)(F)F)cc1)OCc1cccc(Cc2ccccc2)c1 [Compound 538]
- LC50 MW [1]: > 0.01%
- LC50 CL [2]: > 0.1%
- LC50 LH [4]: > 0.05%
- LC50 HF [5]: 75 µg
- LC50 TBW E (eggs) [6]: > 0.1%
